Data set [1] deals with CD14. Nature of the data set: CD14 expression induction in HL-60 promyelocytic leukemia cells (real-time RT-PCR). Format: cell-based. The conditions noted are these: Homo sapiens, HL-60 cells. As for the experimental part:
Some compounds were tested in HL-60 promyelocytic leukemia cells and a primary culture of human coronary artery smooth muscle cells (HCASMC) for CYP24A1 induction. It is well documented that CYP24A1 has a VDRE in its promoter region and is a specific target gene of VDR (Meyer et al., 2007, J Biol Chem 282: 22344-22352). […] Compounds also were tested in HCASMC for their effects in inducing VDR. To assess the suitability of a compound for modulating immune responses, compounds were tested in HL-60 for their effects in inducing CD14 expression. To assess the suitability of a compound for treating thrombosis, compounds also were tested in HCASMC for their effects in modulating thrombomodulin and thrombospondin-1.
Compounds are tested in human HL-60 promyelocytic leukemia cells to assess their potency in inducing the expression of CYP24A1 and CD14. HL-60 cells are cultured in IMDM supplemented with 20% heat-inactivated fetal bovine serum at 37° C. in a humidified 5% CO2-95% air atmosphere. Cells are plated into 6 well plates and treated with test agent for 24 h. Cells are lysed with the addition of 1 mL of Trizol and RNA prepared according to the manufacturer's protocol.
Real-time reverse transcription-PCR is performed with the forward and reverse PCR primers and 250 nM of the TAQMAN™ probe specifically designed for CYP24A1 or CD14. (A TAQMAN™ probe is comprised of a fluorophore covalently attached to the 5′-end of the oligonucleotide probe and a quencher at the 3′-end.) After the data acquisition, the CYP24A1 or CD14 mRNA expression level is normalized to the GAPDH mRNA level. FIGS. 2A and 2B show the results from a typical CYP24A1 (FIG. 2A) and CD14 (FIG. 2B) expression study.
(Real-time PCR tracks product formation cycle by cycle.)

In data set [2] the test system is VDR. As to the kind of experiment: VDR expression induction in primary culture of human coronary artery smooth muscle cells. Format: cell-based. The conditions noted are these: HCASMC. The method, then:
Compounds were tested in a primary culture of HCASMC to assess their potency in inducing the expression of CYP24A1 and VDR.
Primary culture of HCASMC was grown in smooth muscle growth medium SmGM-2 containing 5.5 mM glucose, 5% FBS, 50 μg/ml gentamicin, 50 ng/ml amphotericin-B, 5 μg/ml insulin, 2 ng/ml hFGF, and 0.5 ng/ml hEGF at 37° C. in a humidified 5% CO2-95% air. Cells were grown to >80% confluence and used within five passages.
Cells were plated into 6 well plates and treated with test agent for 24 h. Cells were lysed with the addition of 1 mL of Trizol and RNA prepared according to the manufacturer's protocol.
Real-time reverse transcription-PCR was performed with the forward and reverse PCR primers and […] of the TAQMAN™ probe specifically designed for CYP24A1 or VDR. (A TAQMAN™ probe is comprised of a fluorophore covalently attached to the 5′-end of the oligonucleotide probe and a quencher at the 3′-end.) After the data acquisition, the CYP24A1 or VDR mRNA expression level was normalized to the GAPDH mRNA level. […] Group mean±STDEV (standard deviation) are presented.

Data set [3] deals with 5/6 nephrectomized uremic rats. Nature of the data set: Serum creatinine, BUN, PTH, phosphorus and calcium in 5/6 nephrectomized uremic rats. Format: in vivo, Sprague Dawley rats. The conditions noted are these: for effect on BUN / effect on serum PTH / effect on serum calcium / effect on serum creatinine / effect on serum phosphorus: 5/6 NX rats. As for the experimental part:
The nephrectomy of male, Sprague Dawley, 5/6 rats was performed using a standard two-step surgical ablation procedure (starting body weight ˜200 gm) as previously described (Slatopolsky et al., 1998, Am J Kidney Dis 32: S40-47). Sham operated rats were used as control. The rats were on a diet containing 1.13% calcium and 0.94% phosphorus. Six weeks after the second surgery, treatment was initiated with vehicle (5% ethanol+95% propylene glycol, 0.4 ml/kg) or test agent by intraperitoneal injection (i.p.), 3 times/week, for two weeks (n≥12 per group). Twenty-four hours after the last dose, retro-orbital venous blood was collected for measurement of PTH and other endpoints.
Calcium, serum phosphorus, creatinine, and blood urea nitrogen (BUN) concentrations were measured by a chemistry analyzer (LX-20, Beckman). Serum PTH was measured using a rat intact parathyroid hormone (i-PTH) ELISA kit. For serum chemistry data, group mean±SEM are presented. A t-test was used to analyze differences between baseline 6W (6 weeks after surgery before treatment) and 8W (8 weeks after surgery after two weeks of compound treatment).

The test system of data set [4] is 5/6 nephrectomized uremic rats. Nature of the data set: Left ventricular hypertrophy in 5/6 nephrectomized uremic rats. Format: in vivo, Sprague Dawley rats. The note with it: 5/6 NX rats; for cardiomyocyte morphology: hematoxylin-eosin. As for the experimental part: The experimental conditions using the 5/6 (subtotal) nephrectomized rats were as described above. Twenty-four hours after the last dose, the rats were anesthetized with pentobarbital sodium (35 mg/kg, i.p.). The animals were sacrificed by cervical dislocation. The hearts were taken and washed with cold saline. After removing the residual saline with filter paper, the weight of the freshly dissected hearts and left ventricles were measured, and the ratio of left ventricle weight to body weight (LVW/BW) and/or left ventricle weight to heart weight (LVW/HW) were calculated. Thereafter, the left ventricles were rapidly put into liquid nitrogen until ready for histological and immunohistochemical analysis.
To examine the cardiomyocyte morphology, the left ventricular tissue was fixed in a 4% formaldehyde-phosphate-buffered saline (pH 7.4) solution overnight. The samples were embedded in wax and cut into 4 μm sections. The sections were stained with hematoxylin-eosin and examined under a microscope.
To determine the diameter of cardiomyocytes, a previously published method was followed (Xiang et al., 2005, Am J Physiol Endocrinol Metab 288: E125-132). The sections of left ventricles were stained with FITC-labeled wheat germ agglutinin (1:5 dilution) for 2 h at room temperature and then examined under a fluorescence microscope to visualize the myocyte membrane. The relative size of the cardiomyocytes was quantified by measuring the diameter of the myocytes, which was the distance between the two plasma membranes of a cell in longitudinal section. The measurement was done using ImageJ software. Data were obtained from 30 cells randomly selected from 5-10 microscopic fields of left ventricle slides.
Group mean±SEM are presented. Differences between SHAM, vehicle, and treated animals were assessed using a t-test, a one-way ANOVA followed by a Dunnett's post-hoc test, or a two-way ANOVA, followed by a Bonferonni post-hoc test. Similar to the human CKD condition, the 5/6 (subtotal) nephrectomized rats are known to develop left ventricular hypertrophy (Wolf et al., 2000, Journal of Cardiovascular Pharmacology 36: S348-350). Some animals were sacrificed before treatment to evaluate the development of left ventricular hypertrophy.

Setting [5] is: 24 h, mRNA normalized to GAPDH, Table 3 summary, some values average of 3 or more determinations, read-out: CD14 EC50.
The mark [6] stands for this setting: 24 h, Table 4 summary, some values average of 2 or more determinations, read-out: EC50 for VDR induction.
The mark [7] stands for this setting: i.p. 3 times/week for two weeks.
[8] abbreviates: 5/6 NX uremic rats, i.p. 3 times/week for two weeks.
The mark [9] stands for this setting: 2 weeks of treatment, 8 weeks after surgery.

“Also recorded” adds a separate entry of the source. Read-outs that look alike come from different tables or passages of the source.

The EC50 is the midpoint of the concentration-response curve. Regarding `C=C1[C@H](O)CC(=C/C=C2\CCCC3(C)C2CCC3[C@@H](C)OC[C@H](C)C(C)(C)O)C[C@H]1O` (stereo partly drawn) [Vida-5, (1R,3R)-5-((E)-2-((3αS,7αS)-1-((R)-1-((S)-3-hydroxy-2,3-dimethylbutoxy)ethyl)-7α-methyldihydro-1H-inden-4(2H,5H,6H, 7H, 7αH)-ylidene)ethylidene)-2-methylenecyclohexane-1,3-diol], the EC50 amounted to 3.7 nM in data set [1] (setting [5]); 4.1 nM in data set [1] (typical study, FIG. 2B, read-out: EC50 for inducing CD14 expression); 3.2 nM in data set [2] (setting [6]); 1.3 nM in data set [2] (typical study, FIG. 5B, read-out: EC50 for inducing VDR expression). For the same compound, the “effect on BUN” value in data set [3] (setting [7]) was “significantly reduced BUN at the two higher doses (0.16 and 0.64 μg/kg)”. In addition, the “effect on serum PTH” value in data set [3] (setting [7]) is listed as “significantly suppress PTH levels in a dose-dependent manner”. For the same compound, in data set [3] (setting [7]), the “effect on serum calcium” value was “did not have a significant effect”. Also, in data set [3] (setting [7]), the “effect on serum creatinine” value is recorded as “at the 4 lower doses, had no significant effect on serum creatinine, but the highest dose reduced serum creatinine”. The “effect on serum phosphorus” value in data set [3] (setting [7]) was “did not have a significant effect”. For the same compound, the “dose at which compound starts to suppress serum PTH” value (“dose at which compound starts” below) in data set [3] (setting [8]) came to 0.004 µg/kg. In addition, the cardiomyocyte morphology entry in data set [4] (0.01 μg/kg) is recorded as “improved the morphology of the cardiomyocytes”; in data set [4] (0.16 μg/kg, 3×/week, i.p. for 2 weeks), “nearly restored the morphology of the cardiomyocytes back to the Sham level”. Besides, the “effect on LVW/BW” value in data set [4] (0.04 μg/kg alone, 3×/week, i.p. for 2 weeks) is given as “completely normalized LVW/BW”; in data set [4] (0.04 μg/kg plus losartan (0.025 mg/ml in drinking water)), “completely normalized LVW/BW”. Also, in data set [4] (0.01-0.64 μg/kg, 2 weeks of treatment, FIG. 19), the cardiomyocyte diameter entry was “decreases cardiomyocytes diameter; also recorded: significantly reduced”. Also, in data set [4] (setting [9]), the “effect on LVW/BW (left ventricle weight to body weight)” value is “significantly reduces; also recorded: dose-dependent effect on reducing”. Besides, in data set [4] (setting [9]), the “effect on LVW/HW (left ventricle weight to heart weight)” value is “significantly reduces; also recorded: dose-dependent effect on reducing”.
Consider `CCC(O)(CC)CCO[C@H](C)C1CCC2/C(=C/C=C3C[C@@H](O)C4(CC4)[C@H](O)C3)CCCC21C` (stereo partly drawn) [Vida-10, (4R,8R)-6-((E)-2-((1S,7αS)-1-((R)-1-(3-ethyl-3-hydroxypentyloxy)ethyl)-7α-methyldihydro-1H-inden-4(2H,5H,6H,7H,7αH)-ylidene)ethylidene)spiro[2.5]octane-4,8-diol], for which the EC50 in data set [1] (setting [5]) is 0.4 nM. Moreover, in data set [2] (setting [6]), the EC50 was 0.61 nM. Further, in data set [3] (setting [7]), the “effect on BUN” value is given as “did not significantly affect”, the “effect on serum creatinine” value was “did not significantly affect” and the “effect on serum phosphorus” value is “did not significantly affect”. The “fold less potent in raising serum Ca than Vida-11” value in data set [3] (5/6 NX uremic rats, FIG. 11A) is given as “at least 64 fold”. Moreover, the “fold less potent in suppressing PTH than Vida-11” value in data set [3] (5/6 NX uremic rats, FIG. 11B) is recorded as “about 16 fold”. For the same compound, in data set [3] (setting [8]), the “dose at which compound starts” value stood at 0.16 µg/kg. Also, the “effect on LVW/BW” value in data set [4] (0.16 and 0.64 μg/kg, FIG. 17) is given as “significantly reduced”. Moreover, the “effect on LVW/BW (left ventricle weight to body weight)” value in data set [4] (setting [9]) is “dose-dependent effect on reducing”.
Regarding `C=C1[C@H](O)CC(=C/C=C2\CCCC3(C)C2CCC3[C@@H](C)OCCC(O)(CC)CC)C[C@H]1O` (stereo partly drawn) [Vida-11, (1R,3R)-5-((E)-2-((1S,3αS,7αS)-1-((R)-1-(3-ethyl-3-hydroxypentyloxy)ethyl)-7α-methyldihydro-1H-inden-4(2H, 5H, 6H, 7H, 7αH)-ylidene)ethylidene)-2-methylenecyclohexane-1,3-diol], the EC50 in data set [1] (setting [5]) worked out at 0.9 nM. Further, the EC50 in data set [2] (setting [6]) is 1.4 nM. In data set [3] (setting [7]), the “effect on BUN” value is on record as “no dose-dependent effect”, the “effect on serum PTH” value is on record as “significantly suppress PTH levels in a dose-dependent manner”, the “effect on serum calcium” value is listed as “elevated serum Ca in a dose-dependent manner” and the “effect on serum creatinine” value is on record as “no dose-dependent effect”. For the same compound, in data set [3] (setting [7]), the “effect on serum phosphorus” value is “did not show a significant effect”. In data set [3] (setting [8]), the “dose at which compound raises serum Ca” value was 0.01 µg/kg and the “dose at which compound starts” value turned out to be 0.01 µg/kg. Moreover, the “effect on LVW/BW (left ventricle weight to body weight)” value in data set [4] (setting [9]) was “reduced LVW/BW at the two lower doses, but not at 0.16 μg/kg”.

For the origin of these results see patent US20180327354A1, “Unnatural Analogues of Calcitriol and Uses Thereof” (Vidasym, Inc., priority 2009, published 2018).
